Data from US20240318225A1, “TECHNIQUES FOR ISOLATION OR ANALYSIS OF BACTERIAL PATHOGENS FROM PATIENT SAMPLES” (General Electric Company, priority 2021, published 2024).

System: E. coli clinical isolate
Assay: microfluidic single cell antimicrobial susceptibility testing
Assay type: cell-based
Details: 8 μg/ml ampicillin; during the duration of the experiment
Procedure: The microfluidic device for single cell antimicrobial susceptibility testing was fabricated by soft lithography. The microchannel master mold was fabricated by photolithography patterning and reactive-ion etching of a silicon wafer. Microchannel layers were then fabricated by PDMS molding on the master mold. PDMS pre-polymer and cross-linker were mixed at 10:1 ratio. The mixture was poured on the master mold and incubated for at least 3 hours at 65° C. The single cell antimicrobial susceptibility testing device was fabricated by bonding the PDMS layer with a glass slide. Inlet and outlet reservoirs were created by punching the PDMS layer with a biopsy puncher.
To perform the microfluidic single cell antimicrobial susceptibility testing experiment, ampicillin was added to the enriched samples with concentrations of 0 μg/mL, 2 μg/mL, 4 μg/mL, and 8 μg/mL. Each respective solution was loaded into a microfluidic device by capillary force. The devices were then mounted onto an epi-fluorescence microscope (Leica DMI 4000B, objective 20× or 40×) with a microscope heating stage. The presence of bacteria was examined, and the bacterial growth was monitored continuously.
The disclosed workflows may be used for antimicrobial susceptibility testing using a microfluidic device. […]

CC1(C)S[C@@H]2[C@H](NC(=O)[C@H](N)c3ccccc3)C(=O)N2[C@H]1C(=O)O [ampicillin]
effect on bacteria at higher concentration: some bacteria were lysed
